# Like-named read-outs stand apart in the source and are kept apart here.
# Experiments:
# [1] = in vitro; details: human, A549 cells
# Method: The cell lines A549 (Human Lung Adenocarcinoma Epithelial Cell Line) and HepG2 (Human Hepatocellular Carcinoma Cell Line) were purchased from ATCC. A549 cells were maintained in F-12K medium (Gibco) containing 10% foetal bovine serum (Life Technologies) and 1% penicillin/streptomycin (Life Technologies) and HepG2 cells were maintained in Dulbecco's modified eagles medium (Gibco) containing 10% foetal bovine serum (Life Technologies), penicillin/streptomycin (Life Technologies) and 1% 0.01 mg/ml human transferrin (Sigma). Both were incubated at 37° C. with 5% CO2 until cells reached >80% confluence before splitting or experimental use.
# Before exposure to peptides, the plate was incubated at 37° C. with 5% CO2 overnight to allow cells adhere. […] Medium was removed from the plate containing cells and peptide dilutions were transferred to cells and incubated for a further 3 h at 37° C. with 5% CO2. Cytotoxicity was determined by LIVE/DEAD® Viability/Cytotoxicity kit (Invitrogen Life Technologies), a working solution of 2 μM calcein AM and 4 μM EthD-1 and in conjunction Alamar Blue at a final concentration of 10% was added to the wells. Cells without peptides were the negative control and 1% DMSO was the positive control. Cells were incubated for 3 h again at 37° C. with 5% CO2.
# [2] = test system: C. albicans SC5314; format: cell-based
# Method: 1×RPMI-1640 Buffered with Citrate Phosphate Buffer
# Citrate phosphate buffer was prepared by mixing 0.1 M citric acid and 0.2 M dibasic sodium phosphate dodecahydrate in the proportions indicated in the Table 2 and the volume adjusted to 90 ml with dH2O.
# pH buffered medium was prepared by dissolving 1.04 g RPMI-1640 premix powder in 10 ml citrate phosphate buffer. The volume was then adjusted to 40 ml with dH2O and the pH adjusted by addition of the acid or base. The volume was adjusted to 50 ml with dH2O. The medium was then filter sterilized by vacuum filtration through a 0.2 μm filter and stored at 4° C. and kept for up to 2 weeks.
# The pH of RPMI-1640 was altered, using citrate phosphate buffer, to reflect the more acidic pH environment in the oral cavity. NP319 and NP377 were active against C. albicans SC5314 from pH 5.5-7.0 (Table 2). For all AMPs tested the optimum pH for activity was pH 5.5. NP377 maintained activity at 2 μg/ml from pH 5.5-7 with reduced activity at pH 5.
# [3] = test system: C. albicans SC5314; assay: MIC in the presence of 10% sterile filtered human saliva; format: cell-based
# Method: AMPs of the same sequence length were tested versus C. albicans SC5314 in the presence of 10% (v/v) filtered human saliva at pH 7.0. Positive control is 1×RPMI-1640+cells, no peptide. Data is expressed as percentage of the positive growth controls. Data is the mean±standard error of the mean. (n=3)
# Determination of Minimum Inhibitory Concentration (MIC) in Presence of Sterile Filtered Saliva
# To test if saliva protease could result in a reduction in AMP antifungal activity against C. albicans, antifungal susceptibility testing was conducted in the presence of 10% (v/v) sterile filtered human saliva.
# [4] = test system: human red blood cells (hRBC); assay: Haemolysis of human red blood cells; details: at 2500 μg/ml, 3 h
# Method: Peptides were tested for their haemolytic activity against human red blood cells (hRBC). Fresh hRBCs collected in BD Vacutainer® tubes with EDTA were rinsed 3 times with PBS (pH 7.4) by centrifugation for 10 min at 800 g and resuspended, 1 in 10 diluted with PBS. […] Release of haemoglobin was then calculated by transferring supernatant to a flat bottomed 96-well plate and measuring absorbance at 578 nm. hRBCs with no peptides added and H2O provided the controls.
SMILES,CC50 at 3 h [1],concentration at which activity was maintained ([2]; from pH 5.5-7),MIC50 ([2]; pH 4.5),MIC100 ([2]; pH 4.5),MIC50 ([2]; pH 5),MIC100 ([2]; pH 5),MIC50 ([2]; pH 5.5),MIC100 ([2]; pH 5.5),MIC50 ([2]; pH 6),MIC100 ([2]; pH 6),MIC50 ([2]; pH 6.5),MIC100 ([2]; pH 6.5),MIC50 ([2]; pH 7),MIC100 ([2]; pH 7),"MIC100 ([3]; 10% (v/v) sterile filtered human saliva, pH 7.0)",antifungal activity in the presence of filtered human saliva ([3]; filtered human saliva),Haemolysis RBCs % at 2500 [4]
CCCCCCCCCCCCCCCC(=O)N[C@@H](CCCNC(=N)N)C(=O)N[C@@H](CCCNC(=N)N)C(=O)N[C@@H](CCCNC(=N)N)C(=O)N[C@@H](CCCNC(=N)N)C(=O)N[C@@H](CCCNC(=N)N)C(=O)N[C@@H](CCCNC(=N)N)C(=O)N[C@@H](CCCNC(=N)N)C(=O)N[C@@H](CCCNC(=N)N)C(=O)N[C@@H](CCCNC(=N)N)C(=O)N[C@@H](CCCNC(=N)N)C(=O)N[C@@H](CCCNC(=N)N)C(=O)N[C@@H](CCCNC(=N)N)C(=O)O [C16-(Rx12)],30 µg/mL,–,–,–,–,–,–,–,–,–,–,–,–,–,–,–,–
"N=C(N)NCCC[C@@H](N)C(=O)N[C@H](CCCNC(=N)N)C(=O)N[C@H](CCCNC(=N)N)C(=O)N[C@H](CCCNC(=N)N)C(=O)N[C@H](CCCNC(=N)N)C(=O)N[C@H](CCCNC(=N)N)C(=O)N[C@H](CCCNC(=N)N)C(=O)N[C@H](CCCNC(=N)N)C(=O)N[C@H](CCCNC(=N)N)C(=O)N[C@H](CCCNC(=N)N)C(=O)N[C@H](CCCNC(=N)N)C(=O)N[C@H](CCCNC(=N)N)C(=O)N[C@H](CCCNC(=N)N)C(=O)N[C@H](Cc1c[nH]cn1)C(=O)N[C@H](Cc1c[nH]cn1)C(N)=O [NP377, dRdRdRdRdRdRdRdRdRdRdRdRdRdHdH-CONH]",–,2 µg/mL,32 µg/mL,>64 µg/mL,4 µg/mL,8 µg/mL,1 µg/mL,2 µg/mL,2 µg/mL,2 µg/mL,2 µg/mL,2 µg/mL,2 µg/mL,4 µg/mL,2 µg/mL,retain antifungal activity,–
N=C(N)NCCC[C@H](NC(=O)[C@H](CCCNC(=N)N)NC(=O)[C@H](CCCNC(=N)N)NC(=O)[C@H](CCCNC(=N)N)NC(=O)[C@H](CCCNC(=N)N)NC(=O)[C@H](CCCNC(=N)N)NC(=O)[C@H](CCCNC(=N)N)NC(=O)[C@H](CCCNC(=N)N)NC(=O)[C@H](CCCNC(=N)N)NC(=O)[C@H](CCCNC(=N)N)NC(=O)[C@H](CCCNC(=N)N)NC(=O)[C@H](CCCNC(=N)N)NC(=O)[C@H](CCCNC(=N)N)NC(=O)[C@@H](N)CCCNC(=N)N)C(=O)O [Rx14],> 2500 µg/mL,–,–,–,–,–,–,–,–,–,–,–,–,–,–,–,0%
